Test system: nitric oxide (NO) content in glutamate-damaged primary cultured rat cortical cells
Assay: Measurement of nitrite (Griess reagent), NO content
Type: cell-based
Conditions: compound 1 M (1 μM) for 1 hr before 100 M glutamate, 24 hr
Method: The content of nitrite isolated into culture broth from first cultured cortical cells was assayed by using Griess reagent by Dawson's method (Dawson V L, Brahbhatt H P, Mong J A and Dawson T M (1994) Expression of inducible nitric oxide synthase causes delayed neurotoxicity in primary neuronal-glial cortical cultures. Neuropharmacology 33: 1425-1430).
In case glutamate is treated to first cultured cortical cells of mice, formation of NO is increased. […] When schizandrin is treated at the 1 μM concentration, it decreased NO content increased by glutamate. […] When deoxyschizandrin, gomisin N and wuweizisu C are treated at 1 uM concentration to first cultured cortical cells toxicity-induced by glutamate, those maintained about 50% of normal state activity of GSH-px and glutathione decreased by glutamate and have protective activity on the activity of antioxidant enzymes.
Rat cortical cultures were treated with compounds at the concentration of 1 M for 1 hr before exposure to 100 M glutamate and then maintained for 24 hr. Values given represent the mean SD (n=3).

COc1cc2c(c(OC)c1OC)-c1c(cc(OC)c(OC)c1OC)C[C@](C)(O)[C@@H](C)C2 [schizandrin]
Protection (NO content): 40.2%
